From ChEMBL document CHEMBL5236595, “JDQ443, a Structurally Novel, Pyrazole-Based, Covalent Inhibitor of KRASG12C for the Treatment of Solid Tumors” (J Med Chem, 2022)
Values after ≈ are worked out from the molar mass of the structure shown.

How the values were obtained:
[1] = test system: GTPase KRas (Homo sapiens), P01116 [G12C]; assay: Displacement of [acrylamide-2,3-3H2]-N-(3-fluoro-4-(2-methyl-3-(5-methyl-1H- indazole-4-yl)-1H-pyrrolo[ 2,3-b]pyridin-1-yl)-phenyl from KRAS G12C mutant (unknown origin) assessed as ratio of Kinact/Ki by competitive scintillation proximity assay
GTPase KRas = GTPase KRas (Homo sapiens, UniProt P01116, G12C); assay: Inhibition of KRAS G12C mutant in human NCI-H358 cells assessed as reduction in ERK phosphorylation incubated for 6 hrs by MSD assay; format: cell-based
[2] = Apparent permeability across apical to basolateral side in MDCK-MDR1 cells at 10 uM after 2 hrs by LC-MS/MS analysis; format: ADME, cell-based, Canis lupus familiaris; conditions: dog
[3] = Aqueous solubility of compound in pH 4; format: physicochemical; conditions: aqueous medium
[4] = Lipophilicity, logD of compound at pH 7.4; format: physicochemical; conditions: buffer
[5] = AUC in human MIA PaCa-2 cells xenografted mouse at 30 mg/kg, po; format: ADME, organism-based; parameters: dose 30 mg/kg, route po; conditions: in vivo
[6] = Cmax in human MIA PaCa-2 cells xenografted mouse at 30 mg/kg, po; format: ADME, organism-based; parameters: dose 30 mg/kg, route po; conditions: in vivo
[7] = Cysteine reactivity in pH 7.4 phosphate buffer assessed as compound half life at 2 uM in presence of GSH

Structure (SMILES)	Ratio [1] [mM⁻¹ s⁻¹]	IC50 (GTPase KRas) [nM]	T1/2 [7] [min]	other results
C=CC(=O)N1CC2(CC(n3nc(-c4cccnc4)c(-c4c(Cl)c(C)cc5[nH]ncc45)c3C(F)F)C2)C1	3			
C=CC(=O)N1CC2(CC(n3nc(-c4ccc5c(cnn5CCN(C)C)c4)c(-c4c(Cl)c(C)cc5[nH]ncc45)c3C)C2)C1	150	30		Papp A→B at 2 h, 10 µM [2]: 0.9 ×10⁻⁶ cm/s; solubility [3]: 850 µM (≈ 496 µg/mL); logD [4]: 3.7; AUC [5]: 0.5 µM·h; Cmax [6]: 300 nM
C=CC(=O)Nc1ccc(-n2nc(C(C)C)c(-c3c(C)ccc4[nH]ncc34)c2C)c(F)c1	6	500	20	
C=CC(=O)N1CC2(CC(n3nc(-c4ccc5cn[nH]c5c4)c(-c4c(Cl)c(C)cc5[nH]ncc45)c3C)C2)C1	19	50		
C=CC(=O)Nc1ccc(-n2nc(C)c(-c3c(C)ccc4[nH]ncc34)c2C)c(F)c1	0.5		30	
C=CC(=O)N1CC2(CC(n3nc(C4CCCCC4)c(-c4c(C)ccc5[nH]ncc45)c3C)C2)C1	0.3			
